Experimental data from the NIST ThermoML archive (doi:10.1021/je060313v).

Assays:
[1] = refractive index (Na D-line) (dimensionless); details: 101.33 kPa, Liquid, Standard Abbe refractometry
[2] = for speed of sound / mass density / viscosity: 101.33 kPa, Liquid; for speed of sound: Sing-around technique in a fixed-path interferometer; for mass density: Vibrating tube method; for surface tension liquid-gas: Drop weight; for viscosity: Capillary tube (Ostwald / Ubbelohde) method

CCCCn1cc[n+](C)c1.COS(=O)(=O)[O-] [1-butyl-3-methylimidazolium methyl sulfate]
Details	mass density, [2] [kg/m3]	refractive index, [1]	speed of sound, [2] [m/s]	surface tension liquid-gas, [2] [mN/m]	viscosity, [2] [mPa·s]
278.15 K	1225.84	–	1708.3	–	–
283.15 K	1222.44	1.48351	1695.8	45.9	–
288.15 K	1219.03	1.48213	1683.4	45	–
293.15 K	1215.62	1.48076	1670.9	44.1	288.99
298.15 K	1212.22	1.47942	1658.4	43.3	213.19
303.15 K	1208.81	1.47805	1646	42.8	160.93
308.15 K	1205.41	1.47671	1633.5	42.3	123.73
313.15 K	1202.04	1.47536	1621.1	41.8	96.83
318.15 K	1198.66	1.474	1608.6	–	77.08
323.15 K	1195.34	1.47266	1596.1	–	62.22
328.15 K	1192.02	1.47132	1583.7	–	–
333.15 K	1188.73	1.47	1571.2	–	42.24
338.15 K	1185.45	1.46864	1558.8	–	–
343.15 K	1182.19	1.46725	1546.3	–	29.99
